The values below come from publication PMC6273635, “Synthesis and Structure-Activity Relationships of Imidazole-Coumarin Conjugates against Hepatitis C Virus” (Molecules, 2016).

In data set [1] the test system is HCV genotype 1b subgenomic Huh 5-2 replicon system. The data set can be described thus: Antiviral effect on HCV 1b subgenomic replicon replication in Huh 5-2 cells. It counts as cell-based, Hepatitis C virus. The procedure:
(§1) The antiviral activity of conjugated compounds 3a–g, 7a–e, 9a,b,d–f, and 11b,e,f in the HCV genotype 1b subgenomic Huh 5-2 replicon system was evaluated according to established procedures. On the basis of the dose-response curves that were obtained, the concentration of a compound that inhibited virus replication by 50% (i.e., EC50) and the concentration of compound that reduced host cell metabolism by 50% (i.e., CC50) were obtained. These values subsequently allowed us to calculate the selectivity index (i.e., SI = CC50/EC50), which is a measure for the therapeutic window of the compound in an assay system. […] The observed antiviral effect of other compounds was most likely related mainly to the pleiotropic or aspecific effect on the host cell.
(In antiviral work, replicon cells carry a viral genome segment that copies itself.)

Data set [2] is described as follows: Anti-metabolic effect on host cell metabolism (MTS method) in Huh 5-2 replicon cells. In kind it is cell-based. The following applies: human, Huh 5-2 cells (HCV genotype 1b subgenomic replicon), concentration reducing host cell metabolism by 50%, average of triplicate determinations. On the procedure: as §1
On the technique in general: Formazan colour is commonly taken as a measure of viable cells.

Data set [3] concerns HCV genotype 1b subgenomic Huh 5-2 replicon system. Details: method as in PMID 17977606. The conditions noted are these: HCV 1b subgenomic replicon in Huh 5-2 cells; reference known compounds; ref [11]; cited from earlier work.
The test system of data set [4] is Huh 5-2 cells. Details: method as in PMID 17977606. The conditions noted are these: host cell metabolism, MTS method, reference known compounds, ref [11]; cited from earlier work.
The test system of data set [5] is Huh 5-2 cells. The data set is described as follows: Anti-metabolic effect on host cell metabolism (MTS method) in Huh 5-2 replicon cells. The following applies: concentration reducing host cell metabolism by 50%, average of triplicate determinations. In kind it is cell-based. The procedure:
as §1

Like-named read-outs stand apart in the source and are kept apart here.

Turning to `O=c1oc2ccccc2cc1CSc1ncc[nH]1` [Compound 3a, 2-[(Coumarin-3’-yl)methylthio]imidazole], the melting point (in general, the temperature of the solid-liquid transition) was in the range of 252 to 252.8 °C. In addition, the EC50 (commonly the midpoint of the concentration-response curve) in data set [1] (Hepatitis C virus, Huh-5-2) was determined as 30 µM. Besides, the CC50 (in general, the concentration at which the toxic effect on the cells reaches its halfway point) in data set [2] turned out to be 122 µM.
Taken in the same sequence, the figures for `O=c1oc2ccc(F)cc2cc1CSc1ncc[nH]1` [Compound 3b, 2-[(6′-Fluorocoumarin-3′-yl)methylthio]imidazole] were 258.6 to 259.4 °C, 7.2 µM and 83 µM.
For `O=c1oc2ccc(Cl)cc2cc1CSc1ncc[nH]1` [Compound 3c, 2-[(6′-Chlorocoumarin-3′-yl)methylthio]imidazole], the melting point is 266.2 to 270 °C. This compound showed an EC50 in data set [1] (Hepatitis C virus, Huh-5-2) of 9.7 µM. Moreover, it took 85 µM to reach half-maximal cytotoxicity in data set [2] (CC50).
Turning to `O=c1oc2ccc(Br)cc2cc1CSc1ncc[nH]1` [Compound 3d, 2-[(6′-Bromocoumarin-3′-yl)methylthio]imidazole], the melting point fell in the range of 276.8 to 277.4 °C. The compound also displayed an EC50 in data set [1] (Hepatitis C virus, Huh-5-2) of 5.1 µM. This compound showed a CC50 in data set [2] of 75 µM.
For `COc1cccc2cc(CSc3ncc[nH]3)c(=O)oc12` [Compound 3e, 2-[(8′-Methoxycoumarin-3′-yl)methylthio]imidazole], in that order: 269.8 to 270.6 °C, 8.4 µM and 173 µM.
`Cn1ccnc1SCc1cc2ccccc2oc1=O` [Compound 3f, 1-Methyl-2-[(coumarin-3′-yl)methylthio]imidazole] showed a melting point of 244.2 to 244.8 °C. Moreover, it took 6.7 µM to reach a half-maximal effect in data set [1] (Hepatitis C virus, Huh-5-2) (EC50). In data set [2], this compound returned a 50% cytotoxic concentration (CC50) of 49 µM.
For `Cn1ccnc1SCc1cc2cc(Cl)ccc2oc1=O` [Compound 3g, 1-Methyl-2-[(6′-chlorocoumarin-3′-yl)methylthio]imidazole], in that order: 256.2 to 257.2 °C, 15 µM and 75 µM.
Taken in the same sequence, the figures for `O=c1oc2ccccc2cc1CSc1nccn1[C@@H]1O[C@H](CO)[C@@H](O)[C@H]1O` [Compound 7a, 1-(β-D-Ribofuranos-1″-yl)-2-[(coumarin-3′-yl)methylthio]imidazole] were 164.6 to 165.4 °C, 59 µM and 128 µM.
For `O=c1oc2ccc(F)cc2cc1CSc1nccn1[C@@H]1O[C@H](CO)[C@@H](O)[C@H]1O` [Compound 7b, 1-(β-D-Ribofuranos-1″-yl)-2-[(6′-fluorocoumarin-3′-yl)methylthio]imidazole], in that order: 171.2 to 172.4 °C, 26 µM and 122 µM.
On to `O=c1oc2ccc(Cl)cc2cc1CSc1nccn1[C@@H]1O[C@H](CO)[C@@H](O)[C@H]1O` [Compound 7c, 1-(β-D-Ribofuranos-1″-yl)-2-[(6′-chlorocoumarin-3′-yl)methylthio]imidazole], for which the melting point was in the range of 178.8 to 179.6 °C. This compound came in with an EC50 in data set [1] (Hepatitis C virus, Huh-5-2) of 14 µM. The compound further came in with a CC50 in data set [2] of 85 µM.
For `O=c1oc2ccc(Br)cc2cc1CSc1nccn1[C@@H]1O[C@H](CO)[C@@H](O)[C@H]1O` [Compound 7d, 1-(β-D-Ribofuranos-1″-yl)-2-[(6′-bromocoumarin-3′-yl)methylthio]imidazole], in that order: 188.8 to 189.4 °C, 19 µM and 107 µM.
Taken in the same sequence, the figures for `COc1cccc2cc(CSc3nccn3[C@@H]3O[C@H](CO)[C@@H](O)[C@H]3O)c(=O)oc12` [Compound 7e, 1-(β-D-Ribofuranos-1″-yl)-2-[(8′-methoxycoumarin-3′-yl)methylthio]imidazole] were 169.6 to 170.4 °C, 34 µM and 119 µM.
On to `O=c1oc2ccccc2cc1CSc1nc2c(=O)[nH]cnc2n1[C@@H]1O[C@H](CO)[C@@H](O)[C@H]1O` [Compound 9a, 8-[(Coumarin-3′-yl)methylthio]inosine], for which the response in data set [1] (Hepatitis C virus, Huh-5-2) was half-maximal at 61 µM (EC50). In addition, the CC50 in data set [2] is 109 µM.
For `O=c1oc2ccc(F)cc2cc1CSc1nc2c(=O)[nH]cnc2n1[C@@H]1O[C@H](CO)[C@@H](O)[C@H]1O` [Compound 9b, 8-[(6′-Fluorocoumarin-3′-yl)methylthio]inosine], in that order: 73 µM and 105 µM.
Taken in the same sequence, the figures for `O=c1oc2ccc(Br)cc2cc1CSc1nc2c(=O)[nH]cnc2n1[C@@H]1O[C@H](CO)[C@@H](O)[C@H]1O` [Compound 9d, 8-[(6′-Bromocoumarin-3′-yl)methylthio]inosine] were 70 µM and 93 µM.
Compound `COc1cccc2cc(CSc3nc4c(=O)[nH]cnc4n3[C@@H]3O[C@H](CO)[C@@H](O)[C@H]3O)c(=O)oc12` [Compound 9e, 8-[(8′-Methoxycoumarin-3′-yl)methylthio]inosine] gave an EC50 in data set [1] (Hepatitis C virus, Huh-5-2) of 102 µM. Also, in data set [2], the half-maximal cytotoxic concentration (CC50) was 102 µM.
Take `Cc1ccc2oc(=O)c(CSc3nc4c(=O)[nH]cnc4n3[C@@H]3O[C@H](CO)[C@@H](O)[C@H]3O)cc2c1` [Compound 9f, 8-[(6′-Methylcoumarin-3′-yl)methylthio]inosine]: it took 106 µM to reach a half-maximal effect in data set [1] (Hepatitis C virus, Huh-5-2) (EC50). For the same compound, in data set [2], the CC50 stood at 106 µM.
Consider `Nc1nc2c(nc(SCc3cc4cc(F)ccc4oc3=O)n2[C@@H]2O[C@H](CO)[C@@H](O)[C@H]2O)c(=O)[nH]1` [Compound 11b, 8-[(6′-Fluorocoumarin-3′-yl)methylthio]guanosine], for which the EC50 in data set [1] (Hepatitis C virus, Huh-5-2) was determined as 102 µM. The CC50 in data set [2] turned out to be 102 µM.
In data set [1] (Hepatitis C virus, Huh-5-2), `COc1cccc2cc(CSc3nc4c(=O)[nH]c(N)nc4n3[C@@H]3O[C@H](CO)[C@@H](O)[C@H]3O)c(=O)oc12` [Compound 11e, 8-[(8′-Methoxycoumarin-3′-yl)methylthio]guanosine] yielded a 50% effective concentration (EC50) of 99 µM. Half-maximal cytotoxicity in data set [2] (CC50) was put at 99 µM.
Compound `Cc1ccc2oc(=O)c(CSc3nc4c(=O)[nH]c(N)nc4n3[C@@H]3O[C@H](CO)[C@@H](O)[C@H]3O)cc2c1` [Compound 11f, 8-[(6′-Methylcoumarin-3′-yl)methylthio]guanosine] yielded an EC50 in data set [1] (Hepatitis C virus, Huh-5-2) of 103 µM. In data set [2], this compound registered a CC50 of 103 µM.
As for `O=c1oc2ccccc2cc1CSc1nc2ccccc2[nH]1` [Compound 12a], in data set [3], the concentration giving a half-maximal response (EC50) is 27 µM. In the data set with Huh 5-2 cells [4], the CC50 is 90 µM.
For `O=c1oc2ccc(Br)cc2cc1CSc1nc2ccccc2[nH]1` [Compound 12d], in data set [3], the EC50 was 4 µM. In the data set on Huh 5-2 cells [4], the CC50 is 42 µM.
On to `COc1cccc2cc(CSc3nc4ccccc4[nH]3)c(=O)oc12` [Compound 12e], for which the EC50 in data set [3] is 10 µM. Also, in the data set with Huh 5-2 cells [4], the CC50 was 27 µM.
In data set [1] (Hepatitis C virus, Huh-5-2), `O=c1ccc2ccccc2o1` [coumarin] returned an EC50 above 150 µM. The compound further had a CC50 in data set [2] above 500 µM.
Take `c1c[nH]cn1` [imidazole]: in data set [1] (concentration inhibiting virus replication by 50%, real-time quantitative RT-PCR, HCV 1b Huh 5-2 replicon, average of triplicate determinations, read-out: EC50), the EC50 was above 150 µM. In addition, in the data set with Huh 5-2 cells [5], the CC50 was above 500 µM.
